Experimental findings from patent publication US9687453B2, “Solid pharmaceutical composition” (KYORIN PHARMACEUTICAL CO., LTD., priority 2013, dated 2017) are described below.

A short description of the data set: pH of acidic substance (2.5% liquid in water, pH meter). In kind it is physicochemical. The settings on record: 50 mg in 1,950 μL of water (concentration 2.5%). As to the method: The “acidic substance” described herein is a substance which is dissolved in water to generate hydrogen ions.

Molecules are shown by their SMILES.

On to `Cl.N[C@@H](CCC(=O)O)C(=O)O` [L-glutamic acid hydrochloride], for which the pH is recorded as no more than 3.5.
